Experimental data as given in ChEMBL document CHEMBL1201862, “PubChem BioAssay data set” (2004).
Blank lines part the entries; values can stand above or below the compound they belong to. Active and inactive are the calls of the source.

Columns and labels:
[1] = Luminescence-based counterscreen assay for KLF5 inhibitors: dose response cell-based high throughput screening assay to identify cytotoxic compounds using the IEC-6 intestinal epithelial cell line. [Related pubchem assays: 1700 (Primary screen.), 1834 (Confirmation screen.), 1858 (Summary AID.), 1905 (Counterscreen.)]; type: functional
DLD-1 = test: cytotoxicity in DLD-1 colorectal cells, late-stage follow-up, cytotoxicity control for KLF5 inhibitor project, cell-based, luminescence, round 1 (AID 485338); type: functional; conditions: Homo sapiens
[2] = target: G-protein coupled receptor 55 (Homo sapiens, UniProt Q9Y2T6); test: GPR55 agonists via beta-arrestin recruitment, primary screen, imaging, U2OS cells, beta-arrestin-GFP redistribution (AID 1961); type: functional
Sequence of G-protein coupled receptor 55 (Q9Y2T6 whole entry): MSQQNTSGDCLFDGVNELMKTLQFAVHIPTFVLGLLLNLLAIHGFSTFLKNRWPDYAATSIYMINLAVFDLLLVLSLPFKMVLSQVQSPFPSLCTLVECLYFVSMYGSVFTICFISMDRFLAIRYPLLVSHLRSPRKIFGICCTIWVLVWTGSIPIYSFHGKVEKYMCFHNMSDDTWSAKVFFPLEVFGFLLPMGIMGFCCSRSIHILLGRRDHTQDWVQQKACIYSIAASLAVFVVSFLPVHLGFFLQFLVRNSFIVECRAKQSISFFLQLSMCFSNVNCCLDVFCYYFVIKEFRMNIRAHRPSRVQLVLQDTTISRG

[3] = target: T1, Tyrosine-protein phosphatase non-receptor type 22 (Homo sapiens, UniProt Q9Y2R2); test: LYP (PTPN22) phosphatase inhibitor potency, SAR follow-up, biochemical, pCAP fluorogenic substrate, fluorescence, set 3 (AID 449727); type: functional
T1 sequence (Q9Y2R2 whole entry): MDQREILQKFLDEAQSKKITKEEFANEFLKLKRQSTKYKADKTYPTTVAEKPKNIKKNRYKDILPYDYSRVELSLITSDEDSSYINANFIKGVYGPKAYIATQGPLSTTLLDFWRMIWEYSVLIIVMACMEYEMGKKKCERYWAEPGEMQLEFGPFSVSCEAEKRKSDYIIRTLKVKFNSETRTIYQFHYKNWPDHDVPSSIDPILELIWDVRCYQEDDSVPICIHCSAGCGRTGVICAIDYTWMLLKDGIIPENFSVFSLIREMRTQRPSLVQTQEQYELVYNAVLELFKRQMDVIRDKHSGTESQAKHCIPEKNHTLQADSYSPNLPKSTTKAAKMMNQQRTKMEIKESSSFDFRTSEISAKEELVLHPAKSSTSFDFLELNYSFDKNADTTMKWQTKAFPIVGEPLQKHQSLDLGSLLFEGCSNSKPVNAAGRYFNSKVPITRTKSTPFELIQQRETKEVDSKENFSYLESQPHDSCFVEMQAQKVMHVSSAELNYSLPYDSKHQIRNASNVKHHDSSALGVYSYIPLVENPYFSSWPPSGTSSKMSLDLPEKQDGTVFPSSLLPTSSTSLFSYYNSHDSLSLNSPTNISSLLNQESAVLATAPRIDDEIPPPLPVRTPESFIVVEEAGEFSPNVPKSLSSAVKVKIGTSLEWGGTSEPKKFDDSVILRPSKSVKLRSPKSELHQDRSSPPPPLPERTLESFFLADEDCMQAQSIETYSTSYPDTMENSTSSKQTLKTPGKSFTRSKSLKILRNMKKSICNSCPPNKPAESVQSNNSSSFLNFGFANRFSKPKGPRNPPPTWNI

[4] = target: T1, Tyrosine-protein phosphatase non-receptor type 22; test: SAR LYP1 Fluorescent Assay using OMFP substrate for In Vitro dose response studies - Set 3. [Related pubchem assays (depositor defined):AID1779, AID1784, AID2140, AID2686]; type: functional
[5] = target: Tyrosine-protein phosphatase non-receptor type 12 (Homo sapiens, UniProt Q05209); test: SAR Selectivity Analysis of small molecule inhibitors of PEST using pCAP in a fluorescence assay. [Related pubchem assays (depositor defined):AID1779, AID1784, AID2135]; type: functional
Sequence of Tyrosine-protein phosphatase non-receptor type 12 (Q05209 whole entry): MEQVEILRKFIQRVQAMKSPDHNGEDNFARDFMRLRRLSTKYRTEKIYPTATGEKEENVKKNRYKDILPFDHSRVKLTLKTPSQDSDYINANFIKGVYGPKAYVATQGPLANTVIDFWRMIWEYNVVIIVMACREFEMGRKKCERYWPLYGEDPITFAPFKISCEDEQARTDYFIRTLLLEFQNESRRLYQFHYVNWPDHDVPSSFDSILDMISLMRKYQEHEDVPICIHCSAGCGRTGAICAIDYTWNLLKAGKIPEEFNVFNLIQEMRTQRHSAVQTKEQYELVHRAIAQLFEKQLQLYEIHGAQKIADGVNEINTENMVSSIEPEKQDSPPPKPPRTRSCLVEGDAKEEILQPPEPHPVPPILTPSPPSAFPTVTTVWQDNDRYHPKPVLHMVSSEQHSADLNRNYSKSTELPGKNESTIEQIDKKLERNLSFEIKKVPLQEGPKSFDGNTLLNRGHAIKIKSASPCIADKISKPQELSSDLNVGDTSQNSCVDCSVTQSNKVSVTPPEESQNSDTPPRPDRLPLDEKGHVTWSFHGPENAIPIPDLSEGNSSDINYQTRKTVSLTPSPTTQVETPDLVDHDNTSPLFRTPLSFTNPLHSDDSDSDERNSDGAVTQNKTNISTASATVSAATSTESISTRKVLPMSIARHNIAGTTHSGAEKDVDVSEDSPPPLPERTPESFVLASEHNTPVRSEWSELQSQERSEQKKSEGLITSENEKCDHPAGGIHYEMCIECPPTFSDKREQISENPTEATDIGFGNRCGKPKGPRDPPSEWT

Integrin alpha-L = Integrin alpha-L (Mus musculus, UniProt P24063); test: modulators of CD8 T cell-vesicle binding, dose response, powder samples, mouse 2C CD8+ cells (AID 504565); type: functional
T-cell = test: inhibitors of CD8+ T cell–vesicle binding, dose response, mouse 2C CD8+ T cells, flow cytometry (AID 485284); type: functional
Hexokinase = Hexokinase (Trypanosoma brucei, UniProt Q38C41); test: Confirmation assay for inhibitors of Trypanosoma brucei hexokinase 1-Analogue-first series. [Related pubchem assays (depositor defined):AID1430, AID1632, AID2516, AID2560, AID2579, AID2600, AID449725, AID492951]; type: functional
Sequence of Hexokinase (Q38C41 whole entry): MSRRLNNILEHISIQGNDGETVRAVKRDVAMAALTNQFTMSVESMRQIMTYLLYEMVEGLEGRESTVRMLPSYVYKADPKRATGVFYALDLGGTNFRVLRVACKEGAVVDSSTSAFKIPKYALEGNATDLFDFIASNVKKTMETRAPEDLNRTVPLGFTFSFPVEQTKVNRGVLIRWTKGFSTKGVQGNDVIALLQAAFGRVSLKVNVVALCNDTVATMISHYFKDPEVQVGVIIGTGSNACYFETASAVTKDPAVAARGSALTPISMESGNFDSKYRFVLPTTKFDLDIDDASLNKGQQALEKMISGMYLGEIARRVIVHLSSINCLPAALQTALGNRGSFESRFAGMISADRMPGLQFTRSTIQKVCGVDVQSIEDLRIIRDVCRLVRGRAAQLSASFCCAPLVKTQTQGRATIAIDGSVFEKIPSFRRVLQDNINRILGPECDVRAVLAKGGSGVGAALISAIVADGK

[6] = target: Glucose-6-phosphate 1-dehydrogenase (Homo sapiens, UniProt P11413); test: human G6PD enzyme inhibitors, dose response, selectivity assay for P. falciparum G6PD inhibitor project, biochemical, fluorescence (AID 504792); type: functional
Sequence of Glucose-6-phosphate 1-dehydrogenase (P11413 whole entry, the tested form may be a part): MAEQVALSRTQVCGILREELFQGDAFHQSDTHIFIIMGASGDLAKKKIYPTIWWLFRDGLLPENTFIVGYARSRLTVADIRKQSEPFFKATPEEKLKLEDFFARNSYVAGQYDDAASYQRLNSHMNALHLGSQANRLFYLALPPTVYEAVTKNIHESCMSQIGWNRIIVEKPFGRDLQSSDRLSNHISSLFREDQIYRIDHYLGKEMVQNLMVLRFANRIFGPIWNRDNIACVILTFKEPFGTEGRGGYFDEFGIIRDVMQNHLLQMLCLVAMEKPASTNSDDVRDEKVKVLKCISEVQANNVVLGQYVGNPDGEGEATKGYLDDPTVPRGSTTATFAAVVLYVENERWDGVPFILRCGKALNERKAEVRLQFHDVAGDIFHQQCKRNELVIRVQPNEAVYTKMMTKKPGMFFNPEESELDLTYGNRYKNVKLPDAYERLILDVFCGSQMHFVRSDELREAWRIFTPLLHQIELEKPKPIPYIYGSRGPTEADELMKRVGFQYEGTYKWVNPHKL

[7] = Fluorescence-based cell-based high throughput dose response assay for inhibitors of the interaction of nucleotide-binding oligomerization domain containing 2 (NOD2) and the receptor-interacting serine-threonine kinase 2 (RIPK2).; type: functional; conditions: Homo sapiens
Beta Lactamase = Beta Lactamase (Pseudomonas aeruginosa, UniProt Q932Y6); test: beta-lactamase reporter inhibitor potency, dose response, artefact control for NOD2-RIPK2 interaction inhibitor project, BLA reporter cells, FRET fluorescence (AID 651552); type: functional, cell-based
Sequence of Beta Lactamase (Q932Y6 whole entry): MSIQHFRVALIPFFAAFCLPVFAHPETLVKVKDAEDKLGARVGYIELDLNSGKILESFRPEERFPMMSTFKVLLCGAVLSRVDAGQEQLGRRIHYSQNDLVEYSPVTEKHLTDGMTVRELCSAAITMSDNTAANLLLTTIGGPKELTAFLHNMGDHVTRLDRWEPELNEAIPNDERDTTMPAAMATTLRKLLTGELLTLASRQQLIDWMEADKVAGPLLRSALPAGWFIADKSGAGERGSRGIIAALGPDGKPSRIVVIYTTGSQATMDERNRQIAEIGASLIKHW

[8] = target: T2, Small ubiquitin-related modifier 1 (Homo sapiens, UniProt P63165); test: inhibitors of SUMO1 peptide binding, dose response, biochemical, fluorescence polarization, uHTS hits (AID 624382); type: functional; conditions: read-out: IC50_Mean
T2 sequence (P63165 whole entry): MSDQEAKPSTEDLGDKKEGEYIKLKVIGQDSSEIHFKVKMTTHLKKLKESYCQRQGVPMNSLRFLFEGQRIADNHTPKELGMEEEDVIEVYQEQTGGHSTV

[9] = target: T2, Small ubiquitin-related modifier 1; test: inhibitors of SUMO1 partner interactions, dose response, biochemical, FRET (AID 624383); type: functional; conditions: read-out: IC50_Mean
ORF 73 = target: T3, ORF 73 (Human herpesvirus 8, UniProt O40947); test: inhibitors of C-LANA binding to LBS DNA, dose response, biochemical, fluorescence polarization, cherry-picked samples (AID 504725); design: species or system Human gammaherpesvirus 8;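 further: fluorescence polarization of a labeled DNA duplex reporting LANA DNA binding; potency is for inhibitors that block LANA binding to the DNA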
T3 sequence (O40947 whole entry): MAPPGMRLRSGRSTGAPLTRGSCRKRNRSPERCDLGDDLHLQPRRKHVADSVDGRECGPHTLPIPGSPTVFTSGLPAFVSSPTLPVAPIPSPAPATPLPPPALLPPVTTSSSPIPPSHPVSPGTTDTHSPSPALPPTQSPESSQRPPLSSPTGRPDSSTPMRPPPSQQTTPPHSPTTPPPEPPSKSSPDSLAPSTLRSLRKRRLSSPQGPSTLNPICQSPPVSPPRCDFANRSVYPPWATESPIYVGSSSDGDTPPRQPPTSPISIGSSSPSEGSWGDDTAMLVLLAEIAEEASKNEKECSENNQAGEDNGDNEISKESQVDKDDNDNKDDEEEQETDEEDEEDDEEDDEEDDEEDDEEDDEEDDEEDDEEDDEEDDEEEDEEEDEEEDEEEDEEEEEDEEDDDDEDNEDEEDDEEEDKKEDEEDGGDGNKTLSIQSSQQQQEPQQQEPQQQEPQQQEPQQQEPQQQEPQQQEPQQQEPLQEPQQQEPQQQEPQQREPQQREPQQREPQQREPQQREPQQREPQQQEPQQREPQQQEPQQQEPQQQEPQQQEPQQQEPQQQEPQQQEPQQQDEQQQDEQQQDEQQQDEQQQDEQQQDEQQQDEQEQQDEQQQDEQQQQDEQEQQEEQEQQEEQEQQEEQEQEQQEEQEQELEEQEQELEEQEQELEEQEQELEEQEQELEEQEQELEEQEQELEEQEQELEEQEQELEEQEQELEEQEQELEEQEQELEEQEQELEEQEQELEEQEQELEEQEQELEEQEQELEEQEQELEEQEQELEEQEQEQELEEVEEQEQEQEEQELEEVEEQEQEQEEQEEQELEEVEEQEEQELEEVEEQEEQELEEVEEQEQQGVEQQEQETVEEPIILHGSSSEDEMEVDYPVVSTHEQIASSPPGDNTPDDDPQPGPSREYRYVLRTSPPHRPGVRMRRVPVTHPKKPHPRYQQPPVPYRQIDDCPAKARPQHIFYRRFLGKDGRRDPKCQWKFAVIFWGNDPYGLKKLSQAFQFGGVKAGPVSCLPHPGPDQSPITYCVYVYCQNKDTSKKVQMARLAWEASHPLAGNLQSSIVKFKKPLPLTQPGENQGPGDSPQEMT

[10] = target: T4, Rac GTPase-activating protein 1 (Homo sapiens, UniProt Q9H0H5); test: MgcRacGAP GTPase-activating activity inhibitors, confirmation, biochemical, ADP Hunter fluorescence, primary and confirmatory (AID 624330); type: functional
T4 sequence (Q9H0H5 whole entry): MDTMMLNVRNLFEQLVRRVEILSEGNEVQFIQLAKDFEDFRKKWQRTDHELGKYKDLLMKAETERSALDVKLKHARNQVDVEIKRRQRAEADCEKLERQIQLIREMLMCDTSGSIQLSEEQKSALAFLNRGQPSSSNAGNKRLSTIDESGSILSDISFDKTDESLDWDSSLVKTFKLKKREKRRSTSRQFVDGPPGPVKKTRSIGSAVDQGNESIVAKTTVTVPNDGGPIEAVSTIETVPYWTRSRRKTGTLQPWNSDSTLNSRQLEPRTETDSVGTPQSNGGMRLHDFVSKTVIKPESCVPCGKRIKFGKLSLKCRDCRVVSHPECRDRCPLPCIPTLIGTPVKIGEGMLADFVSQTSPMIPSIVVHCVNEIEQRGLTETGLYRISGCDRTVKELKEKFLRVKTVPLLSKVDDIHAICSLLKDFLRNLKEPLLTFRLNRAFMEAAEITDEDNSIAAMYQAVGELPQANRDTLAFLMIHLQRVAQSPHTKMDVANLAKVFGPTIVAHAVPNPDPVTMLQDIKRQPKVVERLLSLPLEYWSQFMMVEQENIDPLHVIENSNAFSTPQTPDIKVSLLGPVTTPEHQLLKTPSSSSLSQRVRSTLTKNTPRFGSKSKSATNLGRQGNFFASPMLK

Salmon testes DNA = test: DNA intercalators displacing acridine orange, dose response, artefact control for KSHV LANA DNA-binding inhibitor project, biochemical, fluorescence polarization, cherry-picked samples, set 2 (AID 504727); design: species or system Salmonidae
Genome polyprotein = Genome polyprotein (dengue virus type 2, UniProt P29990); test: Dengue-2 NS5 methyltransferase inhibitors, primary screen, biochemical, confirmation dose response (AID 588689); type: functional
Sequence of Genome polyprotein (P29990 2492-3391 limits assumed): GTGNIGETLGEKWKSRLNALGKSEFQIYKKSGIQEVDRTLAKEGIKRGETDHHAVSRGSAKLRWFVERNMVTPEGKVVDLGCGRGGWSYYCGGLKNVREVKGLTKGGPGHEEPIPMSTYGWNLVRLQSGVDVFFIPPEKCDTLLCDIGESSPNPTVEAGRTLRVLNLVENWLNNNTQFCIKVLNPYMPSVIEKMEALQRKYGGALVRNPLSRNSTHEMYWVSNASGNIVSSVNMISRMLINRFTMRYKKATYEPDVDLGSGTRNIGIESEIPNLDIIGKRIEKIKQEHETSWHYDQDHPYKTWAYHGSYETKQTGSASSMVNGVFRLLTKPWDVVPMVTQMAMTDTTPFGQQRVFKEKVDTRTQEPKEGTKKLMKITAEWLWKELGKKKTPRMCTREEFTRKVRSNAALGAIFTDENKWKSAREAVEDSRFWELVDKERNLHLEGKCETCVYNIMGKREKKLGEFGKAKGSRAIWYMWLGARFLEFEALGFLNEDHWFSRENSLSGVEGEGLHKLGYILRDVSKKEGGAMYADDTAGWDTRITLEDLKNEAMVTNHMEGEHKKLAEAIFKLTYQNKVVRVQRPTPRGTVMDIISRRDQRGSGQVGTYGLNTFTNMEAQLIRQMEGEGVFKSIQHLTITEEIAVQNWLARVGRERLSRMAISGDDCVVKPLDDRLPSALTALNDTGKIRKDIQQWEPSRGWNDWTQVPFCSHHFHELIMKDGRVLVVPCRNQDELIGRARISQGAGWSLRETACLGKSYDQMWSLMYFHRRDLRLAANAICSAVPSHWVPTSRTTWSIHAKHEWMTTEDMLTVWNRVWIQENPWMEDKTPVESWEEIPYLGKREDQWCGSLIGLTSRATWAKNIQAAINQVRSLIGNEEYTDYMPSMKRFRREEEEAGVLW

[11] = target: Melanin-concentrating hormone receptor 1 (Homo sapiens, UniProt Q99705); test: Late-stage fluorescence-based counterscreen for antagonists of the G-protein coupled receptor 7 (GPR7): cell-based dose response assay to identify antagonists of the melanin-concentrating hormone receptor 1 (MCHR1). [Related pubchem assays (depositor defined):AID1861, AID1880, AID1952, AID2148, AID2251, AID2257, AID485339]; type: functional;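 further: stimulated with 30 nM MCH peptide agonist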
[12] = target: T5, Neuropeptides B/W receptor type 1 (Homo sapiens, UniProt P48145); test: GPR7 antagonist potency, late-stage follow-up, cell-based, fluorescence, dose response (AID 463251); type: functional
T5 sequence (P48145 whole entry): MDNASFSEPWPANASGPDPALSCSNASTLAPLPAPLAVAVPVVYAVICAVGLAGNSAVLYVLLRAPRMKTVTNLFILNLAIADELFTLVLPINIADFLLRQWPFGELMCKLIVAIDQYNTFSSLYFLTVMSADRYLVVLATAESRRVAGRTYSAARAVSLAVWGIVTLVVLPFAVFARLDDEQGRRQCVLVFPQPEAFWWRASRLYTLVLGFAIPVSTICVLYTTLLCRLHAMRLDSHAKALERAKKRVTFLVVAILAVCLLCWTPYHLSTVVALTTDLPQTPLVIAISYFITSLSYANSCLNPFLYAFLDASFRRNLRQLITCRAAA

[13] = target: Envelope glycoprotein gp160 (Human immunodeficiency virus 1, UniProt Q6QLK5); test: inhibitors of HIV fusion peptide binding, primary screen, biochemical, uHTS, fluorescence dequenching (AID 1986)
Sequence of Envelope glycoprotein gp160 (Q6QLK5 whole entry, the tested form may be a part): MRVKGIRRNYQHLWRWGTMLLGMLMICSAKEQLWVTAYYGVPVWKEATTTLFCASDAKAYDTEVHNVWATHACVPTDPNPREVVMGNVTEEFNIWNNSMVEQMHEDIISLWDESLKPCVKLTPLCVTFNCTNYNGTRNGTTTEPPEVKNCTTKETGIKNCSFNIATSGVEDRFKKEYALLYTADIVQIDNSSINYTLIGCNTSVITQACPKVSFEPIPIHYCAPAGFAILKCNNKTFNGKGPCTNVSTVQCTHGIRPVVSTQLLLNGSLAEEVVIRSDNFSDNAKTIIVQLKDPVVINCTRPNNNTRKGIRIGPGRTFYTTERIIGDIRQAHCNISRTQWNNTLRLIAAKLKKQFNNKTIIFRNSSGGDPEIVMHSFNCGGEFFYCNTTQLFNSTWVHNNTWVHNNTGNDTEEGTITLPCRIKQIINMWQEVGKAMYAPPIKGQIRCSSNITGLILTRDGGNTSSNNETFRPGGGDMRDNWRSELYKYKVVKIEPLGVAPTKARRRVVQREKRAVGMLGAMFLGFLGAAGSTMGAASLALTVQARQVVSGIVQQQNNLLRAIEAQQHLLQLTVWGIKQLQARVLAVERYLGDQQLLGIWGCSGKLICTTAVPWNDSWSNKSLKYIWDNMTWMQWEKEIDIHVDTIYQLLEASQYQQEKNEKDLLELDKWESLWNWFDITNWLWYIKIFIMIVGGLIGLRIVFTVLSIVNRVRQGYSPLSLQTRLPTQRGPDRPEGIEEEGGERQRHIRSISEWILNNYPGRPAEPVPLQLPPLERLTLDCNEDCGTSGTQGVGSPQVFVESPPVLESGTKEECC

Compound: CCOC(=O)c1sc(NC(=O)c2cc3c(s2)CCC(C)C3)nc1C (stereo unspecified)
IC50 [1]: > 39.8 µM (not active)
IC50 (DLD-1): 19.3 µM (inactive)

EC50 [2]: 8.51 µM (active)
Compound: Cc1ccc(C)n1-n1cnc2sc(-c3ccccc3)cc2c1=O

IC50 [3]: 25.7 µM (active)
IC50 [4]: 45.1 µM (active)
IC50 [5]: 3.85 µM (active)
Compound: CCOC(=O)C1=C(C)N=c2sc(=Cc3ccc(OCC(=O)O)cc3)c(=O)n2C1c1ccc(OC(C)C)cc1 (stereo unspecified)

Compound: CCOC(=O)C1CCCN(S(=O)(=O)c2ccc(F)c(C(=O)Nc3ccc(F)c(F)c3)c2)C1 (stereo unspecified)
EC50 (Integrin alpha-L): 19.3 µM (active)
EC50 (T-cell): 0.202 µM (active)

Compound: Cc1ccc(NC(=O)Cn2sc3ccccc3c2=O)cc1
IC50 (Hexokinase): 5.18 µM (active)
IC50 [6]: 15.1 µM (active)
IC50 [7]: 5.7 µM (active)
IC50 (Beta Lactamase): 17.7 µM (inactive)

Compound: Nc1cccc2c(O)cc(S(=O)(=O)O)cc12
IC50 [8]: > 66.6 µM (inactive)
IC50 [9]: 5.35 µM (active)
AC50 (ORF 73): 29.7 µM (active)
IC50 [10]: 98.6 µM (active)
AC50 (Salmon testes DNA): 132 µM (active)
IC50 (Genome polyprotein): 42.7 µM (active)

IC50 [11]: 2.9 µM (active)
IC50 [12]: 2.8 µM (active)
Compound: O=C(C1CCCCN1Cc1cccc(Cl)c1)N1CCN(c2ccc([N+](=O)[O-])cc2)CC1 (stereo unspecified)

IC50 [13]: 6.31 µM (active)
Compound: OCCOCCN1CCN(C(c2ccccc2)c2ccc(Cl)cc2)CC1 (stereo unspecified) [HYDROXYZINE PAMOATE]
